In the supplement of paper PMC10307832:

Key:
Assay in all cases: relative viability (nuclei count vs DMSO), 5 days (fraction); higher = more cells survive
[1] = compound: O=C(C[C@H]1NCCC[C@@H]1O)Cn1cnc2cc(Br)c(Cl)cc2c1=O (racemic) [Halofuginone] + Cc1cc(Nc2cc(N3CCN(C)CC3)nc(Sc3ccc(NC(=O)C4CC4)cc3)n2)n[nH]1 [Tozasertib] (partner 0.1 µM)
Outline: (§1)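 Relative viability equals treated-well nuclei counts divided by vehicle-well nuclei counts. Counts came from 4× images of lung cancer cell lines grown in 1536-well plates for 5 days after pin-tool dosing on the day after seeding. Dosing used one drug alone or a fixed anchor-drug dose plus five library-drug doses (not always all listed) in √10 steps, and values are medians of duplicate plates.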

Decitabine + Navitoclax = compound: Nc1ncn([C@H]2C[C@H](O)[C@@H](CO)O2)c(=O)n1 [Decitabine] + CC1(C)CCC(c2ccc(Cl)cc2)=C(CN2CCN(c3ccc(C(=O)NS(=O)(=O)c4ccc(N[C@H](CCN5CCOCC5)CSc5ccccc5)c(S(=O)(=O)C(F)(F)F)c4)cc3)CC2)C1 [Navitoclax] (partner 0.5 µM)
Outline: as §1

[2] = compound: O=C(C[C@H]1NCCC[C@@H]1O)Cn1cnc2cc(Br)c(Cl)cc2c1=O (racemic) [Halofuginone] + C[C@@H](Oc1cc(-c2cnn(C3CCNCC3)c2)cnc1N)c1c(Cl)ccc(F)c1Cl [Crizotinib] (partner 1 µM)
Outline: as §1

Cediranib + Trametinib = compound: COc1cc2c(Oc3ccc4[nH]c(C)cc4c3F)ncnc2cc1OCCCN1CCCC1 [Cediranib] + CC(=O)Nc1cccc(-n2c(=O)n(C3CC3)c(=O)c3c(Nc4ccc(I)cc4F)n(C)c(=O)c(C)c32)c1 [Trametinib] (partner 0.02 µM)
Outline: as §1

Cell Line	relative viability ([1]; first compound 0.001 µM)	relative viability ([1]; first compound 0.003162 µM)	relative viability ([1]; first compound 0.01 µM)	relative viability ([1]; first compound 0.03162 µM)	relative viability ([1]; first compound 0.1 µM)	relative viability (Decitabine + Navitoclax; first compound 0.04 µM)	relative viability (Decitabine + Navitoclax; first compound 0.1265 µM)	relative viability (Decitabine + Navitoclax; first compound 0.4 µM)	relative viability (Decitabine + Navitoclax; first compound 1.265 µM)	relative viability (Decitabine + Navitoclax; first compound 4 µM)	relative viability ([2]; first compound 0.001 µM)	relative viability ([2]; first compound 0.003162 µM)	relative viability ([2]; first compound 0.01 µM)	relative viability ([2]; first compound 0.03162 µM)	relative viability ([2]; first compound 0.1 µM)	relative viability (Cediranib + Trametinib; first compound 0.04 µM)	relative viability (Cediranib + Trametinib; first compound 0.1265 µM)	relative viability (Cediranib + Trametinib; first compound 0.4 µM)	relative viability (Cediranib + Trametinib; first compound 1.265 µM)	relative viability (Cediranib + Trametinib; first compound 4 µM)
201T	1	0.813	0.995	0.779	0.548	1.16	1.14	1.27	1.13	1.1	0.966	1.02	1.04	1.05	0.964	0.705	0.792	0.707	0.719	0.724
A549	–	–	–	–	–	0.929	0.875	0.331	0.117	0.077	0.824	0.75	0.611	0.338	0.0443	–	–	–	–	–
A-427	0.186	0.225	0.224	0.198	0.192	0.674	0.578	0.365	0.255	0.191	0.941	0.911	0.795	0.807	0.764	0.747	–	0.717	0.684	0.737
ABC-1	0.141	0.142	0.162	0.189	0.158	–	–	–	–	–	1.09	1.08	0.954	1.26	1.15	–	–	–	–	–
BEN	0.535	0.528	0.456	0.511	0.482	0.0613	0.0587	0.0516	0.0522	0.0591	0.979	0.784	1.07	0.772	0.479	1.12	0.936	1.02	1.02	0.986
CAL-12T	0.354	0.279	0.352	0.305	0.262	1.02	0.867	0.752	0.627	0.497	0.733	0.835	0.527	0.834	0.237	0.443	0.362	0.319	0.248	0.341
COR-L23	0.249	0.218	0.198	0.153	0.106	0.577	0.478	0.382	0.294	0.207	0.822	0.78	0.624	0.62	0.0779	0.608	0.578	0.573	0.425	0.532
COR-L 105	0.337	0.288	0.385	0.329	0.346	0.539	0.534	0.437	0.318	0.316	1.01	0.853	0.722	0.718	0.515	0.438	0.478	0.415	0.384	0.43
Calu-6	–	–	–	–	–	0.6	0.457	0.302	0.277	0.207	0.882	0.814	0.82	0.407	0.151	–	–	–	–	–
ChaGo-K-1	0.256	0.205	0.261	0.222	0.208	0.681	0.762	0.479	0.611	0.565	1.18	1.2	1.03	1.11	0.975	0.875	0.821	0.878	0.868	0.909
EBC-1	–	–	–	–	–	0.21	0.257	0.2	0.178	0.15	0.186	0.202	0.188	0.223	0.2	–	–	–	–	–
EKVX	0.432	0.377	0.352	0.354	0.349	0.75	0.809	0.561	0.365	0.347	0.921	0.9	1.04	0.891	0.635	0.283	0.4	0.343	–	0.402
EMC-BAC-2	0.329	0.248	0.276	0.242	0.162	1.08	1.12	0.773	0.705	0.605	0.856	0.805	0.778	0.769	0.32	0.823	–	0.842	0.82	0.923
EPLC-272H	0.241	0.333	0.318	0.279	0.247	0.734	0.658	–	0.426	0.413	0.871	0.928	0.879	0.807	0.774	0.318	–	0.278	0.269	0.242
H3255	0.709	0.524	0.723	0.67	0.618	0.201	0.331	0.353	0.328	0.276	0.94	0.948	0.875	0.952	0.791	0.606	–	0.623	–	0.567
HARA	0.116	0.118	0.105	0.105	0.0853	0.9	0.66	0.568	0.512	0.399	1.17	1.05	0.985	1.05	0.943	0.803	0.81	0.62	0.882	0.831
HCC-15	0.47	0.461	0.394	0.43	0.239	0.654	0.646	0.469	0.413	0.348	0.827	0.887	0.737	0.826	0.657	0.389	–	0.362	0.337	0.404
HCC-44	1.16	0.994	1	0.824	0.17	0.78	0.74	0.362	0.408	0.425	0.89	0.833	0.72	0.745	0.516	1.2	0.907	1.1	1.05	1.07
